pIC50: −log10 of the molar value.
System: GUTat 3.1 strain of the bloodstream form of T. brucei brucei
Test: alamarBlue in vitro viability test for trypanosome parasites
Assay type: cell-based
Conditions: Trypanosoma brucei, 48 h of incubation, read-out: IC50, antitrypanosomal activity
Experimental: The GUTat 3.1 strain of the bloodstream form of T. brucei brucei parasites was used in this study. Parasites were cultured in vitro according to the conditions established previously ([36]). Parasites were used when they reached a confluent concentration of 1 × 10^6 parasites/ml. Estimation of parasitemia was done with the Neubauer counting chamber. Parasites were diluted to a concentration of 3 × 10^5 parasites/ml with HM1-9 medium and were used for the various experiments.
The alamarBlue assay (Life Technologies, USA) was carried out on treated or untreated trypanosome parasites to ascertain their viability. The assay was performed in a 96-well plate following the manufacturer's instructions with modification. Briefly, 1.5 × 10^4 parasites were seeded with varied concentrations of plant material (extracts, fractions, or compounds) ranging from 0.78 μg/ml to […]. Final concentrations of EtOH and dimethyl sulfoxide (DMSO) were kept at <1% and 0.1%, respectively. After incubation of parasites with or without plant extracts or compounds for 24 h at 37°C in 5% CO2, 10% alamarBlue dye was added, and the parasites were incubated another 24 h in darkness. After a total of 48 h, the plate was read for absorbance at 540 nm using the Tecan Sunrise Wako spectrophotometer. The trend curve was drawn to obtain a 50% inhibitory concentration (IC50) of each plant material (extracts, fractions, and compounds).

| SMILES | pIC50 |
| --- | --- |
| COc1c2cc(C=O)ccc2c(OC)c2c(O)cccc12 [oruwalol] | 3.29 |
| CC1(C)CC[C@]2(C(=O)O)CC[C@]3(C)C(=CC[C@@H]4[C@@]5(C)CC[C@H](O)C(C)(C)[C@@H]5CC[C@]43C)[C@@H]2C1 [oleanolic acid] | 4.86 |
| C[C@H]1[C@H](C)CC[C@]2(C(=O)O)CC[C@]3(C)C(=CC[C@@H]4[C@@]5(C)CC[C@H](O)C(C)(C)[C@@H]5CC[C@]43C)[C@H]12 [ursolic acid] | 4.81 |
